# Reference: patent publication US8686113B2 (priority 2009, dated 2014)
# Read-outs that look alike come from different tables or passages of the source. Non-standard residues stand in square brackets, D forms with d. Residues, ends and D or L forms follow the SMILES beside them. No end group written: not given here. Hyp = O=C(O)[C@@H]1C[C@@H](O)CN1; Tle = CC(C)(C)[C@H](N)C(=O)O; Orn = NCCC[C@H](N)C(=O)O
# How the values were obtained:
# [1] = test system: E. coli BL21 A1; assay type: cell-based, Escherichia coli
# In short: (§1)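 Broth microdilution in 1% TSB with twofold peptide series, final 128 μg/mL to 62.5 ng/mL, against 5×10^6 bacteria/mL stock suspension added 1:1. Incubated 20 h at 37 °C, growth read by absorbance at 595 nm; MIC is the lowest concentration with no growth, determined in triplicate.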
# [2] = test system: Escherichia coli DSM 10233
# [3] = test system: Klebsiella pneumoniae DSM 681
# [4] = test system: Pseudomonas aeruginosa DSM 3227
# [5] = mouse, serum
# Experimental: (§3) For this, the peptides and peptidomimetics were dissolved in water, mouse serum was added and the peptide concentration was adjusted to 75 μg/mL. While shaking continuously, the mixture was incubated at 37° C. After 0, 30, 60, 120, 240 and 360 minutes, in each case an aliquot was taken and mixed with 15% aqueous trichloroacetic acid (Carl Roth GmbH & Co. KG; Karlsruhe, Germany). After incubation on ice for a further 10 minutes, the precipitated serum proteins were centrifuged off (5 min, 13400 rpm, MiniSpin, Eppendorf AG, Hamburg, Germany). The supernatant was removed, neutralized with 1 mol/L aqueous sodium hydroxide solution (Fluke Chemie GmbH, Buchs, Switzerland) and stored at −20° C. until analysis.
# (§4) The supernatants were analyzed by RP-HPLC with a linear acetonitrile gradient (Biosolve BV, Valkenswaard, The Netherlands) in the presence of 0.1% trifluoroacetic acid (TFA, UV-grade, Fluka Chemie GmbH, Buchs, Switzerland) as ion-pairing reagent. The fractions were co-crystallized with α-cyanohydroxycinnamic acid (Bruker Daltonik GmbH; Bremen, Germany) as matrix (5.3 mg/mL in 50% acetonitrile in 0.1% aqueous TFA) and were analyzed with a tandem mass spectrometer (MALDI-TOF/TOF-MS, 4700 Proteomics Analyzer; Applied Biosystems GmbH, Weiterstadt, Germany) in the positive-ion reflector mode. The proportion of intact peptides and their degradation products or metabolites could thus be identified and quantified at the individual time points. The control used was 25% aqueous mouse serum, which was analyzed in parallel for the same time intervals.
# [6] = 25% aqueous mouse serum, 37° C., 75 μg/mL peptide
# [7] = in vitro; conditions: mouse, 100% mouse serum
# Experimental: as §3, §4
# [8] = test system: M. luteus 10240; test: Growth inhibition assay (microdilution MIC); assay type: cell-based, Micrococcus luteus
# In short: as §1
# [9] = Stability against bacterial proteases in E. coli lysate; assay type: in vitro ADME; conditions: E. coli lysate with 0.5 mg/mL protein concentration
# In short: (§2)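 Peptide (0.15 μg/mL) incubated at 37° C. in E. coli BL21 A1 sonicated lysate in PBS pH 7.4, Bradford-adjusted to 1.5 or 0.5 mg/mL protein. Samples at 0–360 min TCA-precipitated and neutralized. Intact peptide and fragments quantified by HPLC, identified by MALDI-TOF-MS.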
# [10] = test system: bacterial proteases (E. coli BL21 A1 lysate); test: as above; assay type: in vitro ADME; conditions: 37° C.
# In short: as §2
# [11] = test system: human erythrocytes; test: Hemolysis test; assay type: cell-based; conditions: 1 h at 37° C., relative to Triton X-100
# From the text: Another possibility for investigating the cytotoxicity of the peptides and peptide derivatives is the hemolysis test. The hemolytic activity is investigated on human erythrocytes (Ryge T S & Hansen P R. Potent antibacterial lysine-peptoid hybrids identified from a positional scanning combinatorial library. Bioorganic & Medicinal Chemistry 14: 4444-51, 2006), which the Leipzig University Hospital (Germany) made available as human erythrocyte concentrate in sodium chloride-adenine-glucose-mannitol buffer (stored at 4° C.). The erythrocytes were centrifuged off at 1000 g and washed three times with ten times the volume of cold phosphate-buffered saline (PBS, pH 7.4). The erythrocytes were diluted to a final concentration of 1% in PBS. One hundred microliters of erythrocyte suspension was pipetted into each V-shaped well of a 96-well polypropylene microtiter plate (Greiner Bio-One GmbH). Then 100 μL of the peptides dissolved in PBS was added to each position, to obtain a dilution series from 600 μg/mL to 4.7 μg/mL in seven dilution steps. The microtiter plate was incubated at 37° C. for 1 h and then centrifuged at 1000*g. 100 μL was taken from the supernatant, transferred to a 96-well flat-bottomed polystyrene microtiter plate (Greiner Bio-One GmbH) and the absorption was determined at 405 nm in a Sunrise microtiter plate reader (Tecan Trading AG, Mannedorf, Switzerland), to evaluate the release of the heme group. PBS or 0.1% Triton X-100® ((p-tert-octylphenoxy) polyethoxyethanol; Fluka Chemie GmbH, Buchs, Switzerland) and melittin (SIGMA-Aldrich-Laborchemikalien, Taufkirchen, Germany) were used as negative or positive controls. All hemolysis tests were carried out twice independently as double determination and the degree of hemolysis was determined from the following equation (Park Y et al. A Leu-Lys-rich antimicrobial peptide: activity and mechanism. Biochimica et Biophysica Acta-Proteins and Proteomics 1645: 172-82, 2003): Epeptide−EPBS)/ETriton−EPBS)×100% E=extinction at 405 nm
# [12] = background statement; cited from earlier work
# [13] = test system: M. luteus 10240; assay type: cell-based, Micrococcus luteus; conditions: alanine scan
# Experimental: The purified peptides and peptide derivatives were diluted in water to a final concentration of 500 μg/mL. The test microbes were plated out from a culture in the logarithmic growth phase at a concentration of approx. 3×10^5 cells/mL in 1% tryptic soy broth and 1.2% agarose (Fluka Chemie GmbH, Buchs, Switzerland). With spacing of 3 cm, in each case 10 μL of aqueous peptide solution (500 μg/mL) or 10 μL of water and antibiotic solution as controls were added dropwise. After incubation for 20 h at 37° C., the inhibition zone diameter (IZD) was determined. All tests were performed in aerobic conditions.
# [14] = test system: E. coli 045-849 SENTRY; conditions: ¼ Muller-Hinton medium
# [15] = test system: E. coli ATCC BAA-457; conditions: ¼ Muller-Hinton medium
# [16] = test system: K. pneumoniae ATCC 27799; conditions: ATCC 27799
# [17] = test system: K. pneumoniae K6 ATCC 700603; conditions: ATCC 700603
# [18] = test system: P. aeruginosa 10 J. Wilson
# [19] = test system: S. typhimurium ATCC 14028
# [20] = test system: S. typhimurium s5 (J. Weiser); conditions: ¼ Muller-Hinton medium
# [21] = mouse, serum, Half-life in 25% mouse serum, 25% aqueous mouse serum, 37° C., 75 μg/mL peptide
# [22] = E. coli lysate with 0.5 mg/mL protein concentration; conditions: E. coli BL21 A1, 37° C., up to 360 min
# [23] = test system: E. coli D31 J. Wilson; conditions: ¼ Muller-Hinton medium
# [24] = test system: K. pneumoniae 012-3131
# [25] = test system: P. aeruginosa 39324
# [26] = test system: P. mirabilis ATCC 7002; conditions: ATCC 7002
# [27] = test system: P. vulgaris ATCC 6896; conditions: ATCC 6896
# [28] = test system: S. saprophyticus 15305; conditions: 15305
# [29] = test system: S. typhimurium ATCC 700408
# [30] = in vitro; conditions: mouse, 25% aqueous mouse serum, Half-life in 25% mouse serum, 37° C., 75 μg/mL peptide
# [31] = 25% aqueous mouse serum; conditions: 37° C., up to 360 minutes
# 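Wherever Half-life in 25% mouse serum is given: intact peptide left at successive time points measured by reversed-phase HPLC with an acetonitrile gradient in the supernatant after precipitation of serum proteins.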
molecule,measurement,setting,value
CC[C@H](C)[C@H](NC(=O)[C@@H]1C[C@@H](O)CN1C(=O)[C@H](CCCNC(=N)N)NC(=O)[C@@H]1CCCN1C(=O)[C@@H]1CCCN1C(=O)[C@H](CCCNC(=N)N)NC(=O)[C@@H]1CCCN1C(=O)[C@H](CCCNC(=N)N)NC(=O)[C@@H]1CCCN1C(=O)[C@H](CC(C)C)NC(=O)[C@H](Cc1ccc(O)cc1)NC(=O)[C@@H]1CCCN1C(=O)[C@@H]1CCCN1C(=O)[C@H](CCCCN)NC(=O)[C@H](CC(=O)O)NC(=O)[C@@H](N)C(C)C)C(=O)N[C@@H](Cc1ccc(O)cc1)C(=O)N[C@@H](CC(N)=O)C(=O)N[C@@H](CCCN)C(N)=O [compound 63] (H-VDKPPYLPRPRPPR[Hyp]IYN[Orn]-NH2),MIC E. coli BL21 A1,"[1]; BL21, 20 h",4 µg/mL
same,MIC E. coli DSM 10233,[2],1 µg/mL
same,MIC K. pneumoniae DSM 681,[3],2 µg/mL
same,MIC P. aeruginosa DSM 3227,[4],16 to 32 µg/mL
same,half-life,[5],> 8 h
same,Half-life in 25% mouse serum,[6],>6 h
same,"remaining at 8 h, 75 μg/mL",[7],60%
CC(C)C[C@H](NC(=O)[C@H](Cc1ccc(O)cc1)NC(=O)[C@@H]1CCCN1C(=O)[C@@H]1CCCN1C(=O)[C@H](CCCCN)NC(=O)[C@H](CC(=O)O)NC(=O)[C@@H](N)C(C)C)C(=O)N1CCC[C@H]1C(=O)N[C@@H](CCCNC(=N)N)C(=O)N1CCC[C@H]1C(=O)N[C@@H](CCCNC(=N)N)C(=O)N1CCC[C@H]1C(=O)N1C[C@H](O)C[C@H]1C(=O)N[C@@H](CCCNC(=N)N)C(=O)N1C[C@H](O)C[C@H]1C(=O)N[C@H](C(=O)N[C@@H](Cc1ccc(O)cc1)C(=O)N[C@@H](CC(N)=O)C(=O)N[C@@H](CCCN)C(N)=O)C(C)(C)C [compound 110] (H-VDKPPYLPRPRP[Hyp]R[Hyp][Tle]YN[Orn]-NH2),MIC M. luteus 10240,"[8]; 10240, 20 h",16 µg/mL
same,"remaining at 4 h, 0.15 μg/mL","[9]; E. coli BL21 A1 lysate (bacterial proteases), pH 7.4, read-out: percentage printed under half-life >240 min (peptide remaining)",90%
same,Half-life in E. coli lysate,[10]; E. coli lysate with 0.5 mg/mL protein concentration,>4 h
same,half-life,[5],> 8 h
same,"remaining at 8 h, 75 μg/mL",[7],70%
"(p-tert-octylphenoxy) polyethoxyethanol [Triton X-100, reference compound]",Degree of hemolysis [%] at 600 μg/mL,[11],100%
GKPRPYSPRPTSHPRPIRV [compound 89],Degree of hemolysis [%] at 600 μg/mL,[11],1.1%
"GKPRPYSPRPTSHPRPIRV-OH [SEQ ID NO. 89, reference compound]",MIC M. luteus 10240,"[8]; 10240, 20 h",0.5 µg/mL
same,degradation in mammalian serum (25%),[12],broken down within an hour
GNNRPVYIPQPRPPHPRL [compound 87],Degree of hemolysis [%] at 600 μg/mL,[11],1.2%
H-VDKPPYLPRPRPPRRAYNR-NH2 [SEQ ID NO. 44],"increase in inhibition zone relative to oncocin, M. luteus",[13],0.7 cm
H-VDKPPYLPRPRPPRRIYAR-NH2 [SEQ ID NO. 46],"increase in inhibition zone relative to oncocin, M. luteus",[13],0.7 cm
H-VDKPPYLPRPRPPRRIYNR-NH2 [compound 18],half-life,[9]; 37° C.,1 h
same,MIC E. coli DSM 10233,[2],16 µg/mL
same,MIC K. pneumoniae DSM 681,[3],4 µg/mL
same,MIC P. aeruginosa DSM 3227,[4],>32 µg/mL
same,MIC E. coli 045-849 SENTRY,[14],4 µg/mL
same,MIC E. coli SEQ 102ATCC # BAA-4 57,[15],4 µg/mL
same,MIC K. pneumoniae ATCC 27799,[16],16 µg/mL
same,MIC K. pneumoniae K6 ATCC 700603,[17],8 µg/mL
same,MIC P. aeruginosa 10 J. Wilson,[18],8 µg/mL
same,MIC S. typhimurium ATCC 14028,[19],2 µg/mL
same,MIC S. typhimurium s5 (J. Weiser),[20],4 µg/mL
same,Degree of hemolysis [%] at 600 μg/mL,[11],1.5%
same,half-life,[21],1 h
same,half-life,[5],0.5 h
VDKGSYLPRPTPPRPIYNRN-NH2 [SEQ ID NO. 91],half-life in mammalian serum (25%),[12],2 h
VDKPPYLPRPRP-4tHyp-R-4tHyp-Tle-YNO-NH2,not cleaved,[22],">240 min, 90%"
VDKPPYLPRPRPPRO-Tle-YNO-NH2,not cleaved,[22],">240 min, 90%"
VDKPPYLPRPRPPRRIYNR-NH2 [SEQ ID NO. 18],MIC E. coli BL21 A1,"[1]; 1% TSB, 20 h at 37° C.",4 µg/mL
same,MIC M. luteus 10240,"[8]; 1% TSB, 20 h at 37° C.",8 µg/mL
same,half-life at 0.15 μg/mL,"[10]; E. coli, E. coli BL21 A1 lysate, pH 7.4, E. coli lysate with 0.5 mg/mL protein concentration",1 h
same,MIC E. coli D31 J. Wilson,[23],2 µg/mL
same,MIC K. pneumoniae 012-3131,[24],4 µg/mL
same,MIC P. aeruginosa 39324,[25],4 µg/mL
same,MIC P. mirabilis ATCC 7002,[26],128 µg/mL
same,MIC P. vulgaris ATCC 6896,[27],128 µg/mL
same,MIC S. saprophyticus 15305,[28],16 µg/mL
same,MIC S. typhimurium ATCC 700408,[29],0.25 µg/mL
same,half-life at 75 μg/mL,[30],1 h
VDKPPYLPRPRPPRRIYNR-OH,cleaved bond,[31],"Asn18-arginine19, first_seen"
